Data taken from patent US20230398125A1, “TREATING HEPATITIS” (Albireo AB, priority 2022, published 2023).
Like-named read-outs stand apart in the source and are kept apart here.

Experiments:
HBV (genotype D) = experiment: In vitro HBV infection of NTCP-HepG2 cells, second study (HBeAg, HBc); type: cell-based, hepatitis B virus; details: for IC50: Hepatitis B virus
Method: In a second study, recombinant HBV (genotype D) was produced in vitro as described in the literature (König et al. 2014). […] The myr-preS12-48 peptide (500 nM, genotype D) was used as control inhibitor. All infection experiments were performed in NTCP-HepG2 cells cultured in HGM in the presence of the corresponding compounds with different concentrations, 4% PEG-8000 (Sigma-Aldrich, Darmstadt, Germany), 2% DMSO (Carl Roth, Karlsruhe, Germany) and 100 ng/ml EGF (PeproTech, Hamburg, Germany) as final concentration each. Recombinant HBV was diluted in HGM to a final concentration of 2.5×10^10 HBV-genome copies per well (7×10^8 IU per well) and was added to the cells for 6 h. Subsequently, cells were washed with HGM and cultured in HGM supplemented with 2% DMSO. Medium was changed every 2-3 days until cells were fixed at day 9 p.i. with 3.8% paraformaldehyde (Sigma-Aldrich) in PBS, for 30 min at RT. The cells were immunostained at 37° C. for 1 h (1:400 dilution). For detection of HBV core (HBc) protein expression, a polyclonal anti-HBc antiserum from an immunized guinea pig (1:500 dilution, Eurogentec, Seraing, Belgium) was used as primary antibody and an Alexa Fluor 488-conjugated goat anti-guinea-pig-IgG-antibody (1:400 dilution, Thermo Fisher Scientific) as secondary antibody. Nuclei were stained with DAPI (0.5 μg/ml, Thermo Fisher Scientific). […] HBV-infected cells secrete the soluble HBeAg, which is a widely-accepted quantitative marker for productive HBV infection in cell culture experiments. In this study, HBeAg secreted from infected cells into the cell culture supernatant was determined of supernatant collected from day 5 to 9 p.i. using the Architect HBeAg assay, an automated in vitro diagnostic system (Abbott Laboratories, Wiesbaden, Germany).
Determination of IC50 values was done by nonlinear regression analysis using the equation log(inhibitor) vs. response settings of the GraphPad Prism 6.0 software (GraphPad). Data of [^3H]TC transport and [^3H]preS1 binding are expressed as means±SD from quadruplicate determinations. […]

NTCP-HepG2 cells = experiment: MTT cytotoxicity assay; type: cell-based, human; details: 1 nM-100 μM, HepG2 cells expressing NTCP
Method: The In Vitro Toxicology Assay Kit (Sigma-Aldrich) was used to perform a 3-[4,5-dimethylthiazole-2-yl]-2,5-diphenyltetrazolium bromide (MTT) assay to measure the cytotoxicity of the test item according to the manufacturer's protocol. Briefly, NTCP-HepG2 cells were incubated with 100 μL of the indicated concentrations of the test item solved in Hepatocyte Growth Medium (HGM) over 6 h at 37° C. After 6 h, medium was replaced by inhibitor-free HGM and cells were cultured for additional 24 h. Then medium was removed and 100 μL DMEM containing 0.5 mg/mL MTT was added and cells were incubated for 1 h at 37° C. Finally, the medium was replaced by 100 μL isopropyl alcohol (Sigma-Aldrich) and samples were measured by Glo-Max-Multi Detection System (Promega, Madison, Wis., USA). See also Lowjaga K A A, et al. (2020). Long-term trans-inhibition of the hepatitis B and D virus receptor NTCP by taurolithocholic acid. Am J Physiol Gastrointest Liver Physiol 320(1):G66-G80; and Kirstgen et al. 2021.

For CCCCC1CN(c2ccccc2)c2cc(SC)c(O/C=C(\F)C(=O)O)cc2S(=O)(=O)N1C (stereo not shown) [Compound 1, (Z)-3-((3-butyl-2-methyl-7-(methylthio)-1,1-dioxido-5-phenyl-2,3,4,5-tetrahydro-1,2,5-benzothiadiazepin-8-yl)oxy)-2-fluoroacrylic acid], the IC50 (HBV (genotype D); read-out: IC50 in vitro HBV infection (HBc)) was 16.1 nM, the IC50 (HBV (genotype D); read-out: IC50 in vitro HBV infection (HBeAg)) was 19.1 nM and the “HBeAg secretion relative to cut off value” (HBV (genotype D); second study, highest inhibitor concentration 1000 nM) was “above the cut off value”. The “cytotoxic effects (MTT)” value (NTCP-HepG2 cells) was “no cytotoxic effects”.
